Laboratory results as given in patent US20260042764A1, “COMPOSITIONS AND METHODS FOR INHIBITION OF KRAS” (TheRas, Inc., priority 2022, published 2026).

Experiments:
[1] = molecular target: T1, Avi-KRAS WT (2-169) GTP/RAF1 RBD-3xFLAG (51-131) (Homo sapiens, UniProt P01116); experiment: Raf1-KRAS WT-GTP disruption HTRF assay (Biological Example 3); type: binding; conditions: KRAS WT, GTP-loaded
T1 construct: Avi-KRAS WT (2-169)
Summary of the method: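 Compounds were titrated 10-point, 3-fold from 30 μM against preformed KRAS-GTP:RAF1 RBD (51-131) complexes at 50 nM, using KRAS 2-169 as WT, G12C, G12D or G12V. After 1 h at room temperature in Tris pH 7.5 buffer with MgCl2 and 10% DMSO, time-resolved fluorescence was read. Results are percent activity versus DMSO.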

[2] = molecular target: T2, Avi-KRAS G12D (1-169) GppNHp/RAF1 RBD-3xFLAG (52-151) (Homo sapiens, UniProt P01116, G12D); experiment: Raf1-KRAS G12D-GppNHP disruption HTRF assay (Biological Example 1); type: binding
T2 construct: Avi-KRAS G12D (1-169)
Summary of the method: (§1)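 Using HTRF, the loss of KRAS–effector RAF1 complex was quantified in 50 mM Tris pH 7.5 buffer with 100 mM NaCl and 0.1% BSA. The protein step and reagent step ran 1 h each at room temperature. Activity normalized with DMSO taken as 100%.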

GP2d cells (KRAS G12D) = experiment: Cell-based pERK HTRF assay in GP2d cell (Biological Example 2); conditions: GP2d (KRAS G12D) cells
Summary of the method: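 Cells grown in DMEM with 10% FBS were exposed to compound for 60 min at 0.25% DMSO, using a 9-point half-log series starting at 1 μM or 100 nM. Lysates were then mixed with d2 and Eu cryptate antibodies for 4–24 h at room temperature, and pERK was read by HTRF.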

[3] = molecular target: T3, Avi-KRAS G12V (1-169) GppNHp/RAF1 RBD-3xFLAG (52-151) (Homo sapiens, UniProt P01116, G12V); experiment: Raf1-KRAS G12V-GppNHP disruption HTRF assay (Biological Example 1); type: binding
T3 construct: Avi-KRAS G12V (1-169)
Summary of the method: as §1

[4] = KRAS G12D, GppNHp-loaded, Table 11
[5] = KRAS G12V, GppNHp-loaded, Table 11
[6] = KRAS G12D, GppNHp-loaded, class symbols
[7] = KRAS G12V, GppNHp-loaded, class symbols

T1 sequence (P01116 2-169 isoform P01116-2): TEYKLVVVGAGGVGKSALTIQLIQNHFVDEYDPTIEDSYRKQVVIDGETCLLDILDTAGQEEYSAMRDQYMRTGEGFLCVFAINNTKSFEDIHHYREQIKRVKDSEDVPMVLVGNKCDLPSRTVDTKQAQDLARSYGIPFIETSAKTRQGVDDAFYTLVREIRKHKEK
T2 sequence (P01116 1-169 isoform P01116-2 G12D): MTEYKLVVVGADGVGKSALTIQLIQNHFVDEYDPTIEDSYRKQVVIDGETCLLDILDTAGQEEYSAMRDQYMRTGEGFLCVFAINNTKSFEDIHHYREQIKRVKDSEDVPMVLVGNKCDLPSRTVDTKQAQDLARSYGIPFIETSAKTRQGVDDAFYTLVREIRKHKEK
T3 sequence (P01116 1-169 isoform P01116-2 G12V): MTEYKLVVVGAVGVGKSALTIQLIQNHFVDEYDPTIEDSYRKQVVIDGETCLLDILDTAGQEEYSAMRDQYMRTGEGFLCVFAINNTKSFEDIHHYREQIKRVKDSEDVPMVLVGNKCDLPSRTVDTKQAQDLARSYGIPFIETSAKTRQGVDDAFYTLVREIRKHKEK

Row | IC50 [1] [nM] | IC50 [2, 4] [nM] | IC50 (GP2d cells (KRAS G12D)) [nM] | IC50 (GP2d cells (KRAS G12D); pERK HTRF) [nM] | IC50 [3, 5] [nM] | IC50 (GP2d cells (KRAS G12D); GP2d) [nM] | IC50 (GP2d cells (KRAS G12D); GP2d, pERK HTRF) [nM] | IC50 [2, 6] [nM] | IC50 (GP2d cells (KRAS G12D); GP2d, pERK HTRF, class symbols) [nM] | IC50 [3, 7] [nM] | IC50 (GP2d cells (KRAS G12D); pERK HTRF, class symbols) [nM] | IC50 ([2]; KRAS G12D-GppNHp/RAF1 RBD HTRF) [nM] | IC50 ([3]; KRAS G12V-GppNHp/RAF1 RBD HTRF) [nM] | SMILES
1 | ≤ 100 | < 100 | < 100 | < 100 | < 100 | – | – | – | – | – | – | – | – | CN(c1nc(OC[C@@]23CCCN2C[C@H](F)C3)nc2c(F)c(-c3ccc(F)c4sc(N)c(C#N)c34)c(C(F)(F)F)cc12)[C@H]1C[C@@H](O)C1 [Compound 19, 2-amino-7-fluoro-4-((S)-8-fluoro-2-(((2R,7aS)-2-fluorotetrahydro-1H-pyrrolizin-7a(5H)-yl)methoxy)-4-(((1s,3R)-3-hydroxycyclobutyl)(methyl)amino)-6-(trifluoromethyl)quinazolin-7-yl)benzo[b]thiophene-3-carbonitrile]
2 | 100 to 1000 | < 100 | – | – | 100 to 1000 | < 100 | < 100 | – | – | – | – | – | – | CCN(c1nc(OC[C@@]23CCCN2C[C@H](F)C3)nc2c(F)c(-c3ccc(F)c4sc(N)c(C#N)c34)c(C(F)(F)F)cc12)[C@@H]1CCN(C(C)=O)C1 [Compound 268]
3 | 100 to 1000 | – | – | – | – | < 100 | – | < 100 | < 100 | < 100 | – | – | – | CCN1C[C@@H](N(C)c2nc(OC[C@@]34CCCN3C[C@H](F)C4)nc3c(F)c(-c4ccc(F)c5sc(N)c(C#N)c45)c(C(F)(F)F)cc23)CC1=O (atropisomer, axis not shown) [Compound 636]
4 | 100 to 1000 | – | – | – | – | < 100 | < 100 | – | – | – | – | 100 to 1000 | 100 to 1000 | CCC(=O)N1CC[C@@H](N(CC)c2nc(OC[C@@]34CCCN3C[C@H](F)C4)nc3c(F)c(-c4ccc(F)c5sc(N)c(C#N)c45)c(C(F)(F)F)cc23)C1 [Compound 327]
5 | 100 to 1000 | – | – | – | – | < 100 | – | < 100 | < 100 | < 100 | – | – | – | CCN(c1nc(OC[C@@]23CCCN2C[C@H](F)C3)nc2c(F)c(-c3ccc(F)c4sc(N)c(C#N)c34)c(C(F)(F)F)cc12)[C@H]1CC(=O)N(C)C1 (atropisomer, axis not shown) [Compound 614]
6 | 100 to 1000 | – | – | – | – | < 100 | – | < 100 | < 100 | 100 to 1000 | – | – | – | CCN(c1nc(OC[C@@]23CCCN2C[C@H](F)C3)nc2c(F)c(-c3ccc(F)c4sc(N)c(C#N)c34)c(C(F)(F)F)cc12)[C@H]1C[C@@H](C)N(C(=O)[C@H]2CCO2)C1 (atropisomer, axis not shown) [Compound 752]
7 | 100 to 1000 | – | – | – | – | < 100 | – | < 100 | < 100 | < 100 | – | – | – | CCN(c1nc(OC[C@@]23CCCN2C[C@H](F)C3)nc2c(F)c(-c3ccc(F)c4sc(N)c(C#N)c34)c(C(F)(F)F)cc12)[C@H]1C[C@H](C)N(C(=O)OC)C1 (atropisomer, axis not shown) [Compound 704]
8 | 100 to 1000 | – | – | – | – | < 100 | < 100 | – | – | – | – | < 100 | 100 to 1000 | CCN(c1nc(OC[C@@]23CCCN2C[C@H](F)C3)nc2c(F)c(-c3ccc(F)c4sc(N)c(C#N)c34)c(C(F)(F)F)cc12)[C@H]1CCN(C(=O)C(C)C)C1 [Compound 332]
9 | ≤ 100 | – | – | – | – | < 100 | – | < 100 | < 100 | < 100 | – | – | – | CCN(c1nc(OC[C@@]23CCCN2C[C@H](F)C3)nc2c(F)c(-c3ccc(F)c4sc(N)c(C#N)c34)c(C(F)(F)F)cc12)[C@H]1CC(=O)N2CCC[C@@H]12 (atropisomer, axis not shown; (aS)) [Compound 697, 2-amino-4-((S)-4-(ethyl((1S,7aS)-3-oxohexahydro-1H-pyrrolizin-1-yl)amino)-8-fluoro-2-(((2R,7aS)-2-fluorotetrahydro-1H-pyrrolizin-7a(5H)-yl)methoxy)-6-(trifluoromethyl)quinazolin-7-yl)-7-fluorobenzo[b]thiophene-3-carbonitrile]
10 | ≤ 100 | – | – | – | – | < 100 | – | < 100 | < 100 | < 100 | – | – | – | CCN(c1nc(OC[C@@]23CCCN2C[C@H](F)C3)nc2c(F)c(-c3ccc(F)c4sc(N)c(C#N)c34)c(C(F)(F)F)cc12)[C@H]1CCN(C(=O)C2C[C@@H]2F)C1 (stereo partly drawn) [Compound 692]

Continued, compound first:

Row | SMILES | IC50 [1] [nM] | IC50 [2, 4] [nM] | IC50 (GP2d cells (KRAS G12D)) [nM] | IC50 (GP2d cells (KRAS G12D); pERK HTRF) [nM] | IC50 [3, 5] [nM] | IC50 (GP2d cells (KRAS G12D); GP2d) [nM] | IC50 (GP2d cells (KRAS G12D); GP2d, pERK HTRF) [nM] | IC50 [2, 6] [nM] | IC50 (GP2d cells (KRAS G12D); GP2d, pERK HTRF, class symbols) [nM] | IC50 [3, 7] [nM] | IC50 (GP2d cells (KRAS G12D); pERK HTRF, class symbols) [nM] | IC50 ([2]; KRAS G12D-GppNHp/RAF1 RBD HTRF) [nM] | IC50 ([3]; KRAS G12V-GppNHp/RAF1 RBD HTRF) [nM]
11 | N#Cc1c(N)sc2c(F)ccc(-c3c(C(F)(F)F)cc4c(N5CCOCC5)nc(OC[C@@]56CCCN5C[C@H](F)C6)nc4c3F)c12 (single isomer, unassigned) [Compound 198] | 100 to 1000 | 100 to 1000 | – | < 100 | 100 to 1000 | < 100 | – | – | – | – | – | – | –
12 | C[C@H]1Cn2nc(C(=O)N(C)C)cc2CN1c1nc(OC[C@@]23CCCN2C[C@H](F)C3)nc2c(F)c(-c3ccc(F)c4sc(N)c(C#N)c34)c(C(F)(F)F)cc12 (atropisomer, axis not shown) [Compound 610] | 1000 to 10000 | – | – | – | – | < 100 | – | < 100 | < 100 | 100 to 1000 | – | – | –
13 | Cc1c(C(=O)N2CCOCC2)nn2c1CN(c1nc(OCC34CCCN3CC(F)C4)nc3c(F)c(-c4ccc(F)c5sc(N)c(C#N)c45)c(C(F)(F)F)cc13)CC2 (stereo not drawn) [Compound 741] | 100 to 1000 | – | – | – | – | < 100 | – | < 100 | < 100 | 100 to 1000 | – | – | –
14 | CCN(c1nc(OC[C@@]23CCCN2C[C@H](F)C3)nc2c(F)c(-c3ccc(F)c4sc(N)c(C#N)c34)c(C(F)(F)F)cc12)[C@H]1CCN(C(=O)N2CCN(C(C)=O)CC2)C1 (atropisomer, axis not shown) [Compound 619] | 100 to 1000 | – | – | – | – | < 100 | – | < 100 | < 100 | < 100 | – | – | –
15 | Cc1c(C(=O)N(C)C)nn2c1CN(c1nc(OC[C@@]34CCCN3C[C@H](F)C4)nc3c(F)c(-c4ccc(F)c5sc(N)c(C#N)c45)c(C(F)(F)F)cc13)CC2 (atropisomer, axis not shown; (aS)) [Compound 590, 5-((S)-7-(2-amino-3-cyano-7-fluorobenzo[b]thiophen-4-yl)-8-fluoro-2-(((2R,7aS)-2-fluorotetrahydro-1H-pyrrolizin-7a(5H)-yl)methoxy)-6-(trifluoromethyl)quinazolin-4-yl)-N,N,3-trimethyl-4,5,6,7-tetrahydropyrazolo[1,5-a]pyrazine-2-carboxamide] | 100 to 1000 | – | < 100 | – | – | – | – | < 100 | < 100 | < 100 | – | – | –
16 | CCN(c1nc(OCC23CCCN2CC(F)C3)nc2c(F)c(-c3ccc(F)c4sc(N)c(C#N)c34)c(C(F)(F)F)cc12)C1CC(C)N(C(=O)C2CC2(F)F)C1 (stereo not drawn) [Compound 732] | 100 to 1000 | – | < 100 | – | – | – | – | < 100 | – | < 100 | < 100 | – | –
17 | C[C@H](c1cccnc1N)N(C)c1nc(OC[C@@]23CCCN2C[C@H](F)C3)nc2c(F)c(-c3ccc(F)c4sc(N)c(C#N)c34)c(C(F)(F)F)cc12 (atropisomer, axis not shown) [Compound 600] | 100 to 1000 | – | – | – | – | < 100 | – | < 100 | < 100 | < 100 | – | – | –
18 | N#Cc1c(N)sc2c(F)ccc(-c3c(C(F)(F)F)cc4c(N5C[C@H]6C[C@@H]5CO6)nc(OC[C@@]56CCCN5C[C@H](F)C6)nc4c3F)c12 (single isomer, unassigned) [Compound 287] | 100 to 1000 | – | – | – | – | < 100 | < 100 | – | – | – | – | 100 to 1000 | 100 to 1000
